Series [1] concerns ocular structures. The settings on record: prior-art dyes, general statement; cited from earlier work.
In series [2] the test system is epiretinal and internal limiting membrane of the retina. Nature of the series: Staining of the inner limiting membrane with trypan blue solution during pars plana vitrectomy. The class given is in vivo, patient. Particulars: 0.1% w/w in physiological saline, instilled, left for 30 seconds, aspirated and irrigated; Patients A and B. The source says:
In respect of retinal surgery for the removal of aberrant membranes or for the peeling of epiretinal and internal limiting membranes of the retina, the vitreous gel of the eye is removed by a technique known as pars plana vitrectomy, with stripping of the outer (cortical) vitreous. In place of the vitreous gel, infusion fluid is introduced into the eye via an infusion port. The inner limiting membrane may then be stained with trypan blue solution (for example 0.1% w/w) instilled with a fine silicone-tipped extrusion needle, left for 30 seconds to stain the membrane, aspirated, followed by irrigation of the area with balanced salt (physiological) solution. Peeling of the membrane proceeds and is greatly facilitated because of improved visualization of the extent of the membrane. The procedure is then completed in standard fashion with fluid-gas exchange.
Patient A required peeling of epiretinal and internal limiting membrane of the retina as part of the surgical management of premacular fibrosis and macular hole conditions.
Patient B is a diabetic suffering from severe diabetic retinopathy, with proliferative vitreo retinopathy.
A 0.1% w/w solution of trypan blue in physiological saline is prepared.
In each patient the vitreous gel of the eye is removed by pars plana vitrectomy an established procedure in the art, which involves stripping of the outer (cortical) vitreous. […]

For the next series, the system named is trabecular meshwork. The experiment in a line: Marking of the trabecular meshwork with trypan blue before laser treatment in glaucoma. The series is classed as in vivo. The settings on record: Patient C. The source says:
Eye pressure is regulated in part by flow of ocular fluid (aqueous humour) through a biological valve, known as the trabecular meshwork. In glaucoma, a pathological condition where the eye pressure is raised, the eye pressure may be lowered by application of a laser energy source to the trabecular meshwork. In the prior art the success of this technique generally depends upon the presence of sufficient natural pigmentation of the trabecular meshwork which will absorb the laser energy. Using trypan blue to mark the trabecular meshwork improves identification of this structure, and the uptake of laser energy. A trypan blue solution is instilled into the eye in the location of the trabecular meshwork, and after a short time period such as from 10 seconds to one minute, the trypan blue solution is removed and the area generally irrigated to remove excess trypan blue. The now marked trabecular meshwork can be readily visually distinguished, and laser application can take place. Other ocular structures may be marked in the same manner so as to enable identification and if necessary surgical or other treatment.
Patient C is a glaucoma sufferer who has elevated eye pressure. 0.1% trypan blue is instilled into the eye of patient C through a cannular, introducing the trypan blue solution in the area with trabecular meshwork.

Series [3] relates to ocular structures. The experiment in a line: Toxicity and permanence of staining of dyes used in the eye. The settings on record: trypan blue, general statement. The source says:
A number of dyes have been used in the eye to identify vital structures, examples of dyes used include indocyanin green, rose bengal, gentian violet and methylene blue.

Molecules are shown by their SMILES.

As to `O=C([O-])c1c(Cl)c(Cl)c(Cl)c(Cl)c1-c1c2cc(I)c(=O)c(I)c-2oc2c(I)c([O-])c(I)cc12.[Na+].[Na+]` [rose bengal], in the series with ocular structures [1], the “toxicity to ocular structures” value is listed as “toxic to ocular structures”.
Consider `CC1(C)C(/C=C/C=C/C=C/C=C2\N(CCCCS(=O)(=O)[O-])c3ccc4ccccc4c3C2(C)C)=[N+](CCCCS(=O)(=O)[O-])c2ccc3ccccc3c21.[Na+]` [indocyanin green], for which, in the series on ocular structures [1], the “toxicity to ocular structures” value is “toxic to ocular structures”.
`CN(C)c1ccc2nc3ccc(=[N+](C)C)cc-3sc2c1` [methylene blue]: the “toxicity to ocular structures” value with ocular structures [1] was “toxic to ocular structures”.
With `CN(C)c1ccc(C(=C2C=CC(=[N+](C)C)C=C2)c2ccc(N(C)C)cc2)cc1` [gentian violet], the “toxicity to ocular structures” value in the series on ocular structures [1] is recorded as “toxic to ocular structures”.
Regarding `Cc1cc(-c2ccc(/N=N/c3c(S(=O)(=O)O)cc4cc(S(=O)(=O)O)cc(N)c4c3O)c(C)c2)ccc1/N=N/c1c(S(=O)(=O)O)cc2cc(S(=O)(=O)O)cc(N)c2c1O` [trypan blue], the “visual identification of membranes after staining” value in series [2] was “readily identified”. Besides, the “visualization of the trabecular meshwork” value in the series on trabecular meshwork (0.1% trypan blue instilled through a cannular, glaucoma) was “visualized by simple visual identification”. For the same compound, the “eye pressure after laser treatment” value in the series on trabecular meshwork (0.1% trypan blue marking followed by laser light, elevated eye pressure) is listed as “Successful lowering of eye pressure”. The “uptake of laser energy” value in the series on trabecular meshwork (0.1% trypan blue, after irrigation, area subject to laser light) is “improving uptake of laser energy”. For the same compound, in the series with ocular structures [3], the “reversibility of staining of eye structures” value was “does not irreversibly stain eye structures” and the “toxicity in the eye” value is recorded as “non-toxic”.

Source of the values: patent publication US6372449B1, “Opthalmic methods and uses” (priority 1999, dated 2002).
